Measurements taken from patent US20220169643A1, “ESTROGEN RECEPTOR DEGRADING PROTACS” (AstraZeneca AB, priority 2019, published 2022).

target: T1, Estrogen Receptor Alpha Ligand binding domain (ER alpha-LBD (GST)) (Homo sapiens, UniProt P03372); experiment: ERα Binding Assay (LanthaScreen TR-FRET competition); settings: competitive displacement of Fluormone ES2 tracer from recombinant human ER alpha-LBD (residues 307-554), 4 hours at room temperature
T1 construct: made in house
T1 sequence (P03372 307-554): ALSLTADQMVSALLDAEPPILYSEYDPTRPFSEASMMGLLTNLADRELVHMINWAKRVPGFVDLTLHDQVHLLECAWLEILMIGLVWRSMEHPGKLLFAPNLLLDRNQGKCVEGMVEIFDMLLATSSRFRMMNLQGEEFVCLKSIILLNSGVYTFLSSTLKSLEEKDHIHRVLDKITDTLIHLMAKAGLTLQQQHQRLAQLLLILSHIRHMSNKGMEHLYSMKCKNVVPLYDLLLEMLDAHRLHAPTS
Description: The ability of compounds to bind to isolated Estrogen Receptor Alpha Ligand binding domain (ER alpha-LBD (GST)) was assessed in competition assays using a LanthaScreen™ Time-Resolved Fluorescence Resonance Energy Transfer (TR-FRET) detection end-point. For the LanthaScreen TR-FRET endpoint, a suitable fluorophore (Fluormone ES2, ThermoFisher, Product code P2645) and recombinant human Estrogen Receptor alpha ligand binding domain, residues 307-554 (expressed and purified in-house) were used to measure compound binding. The assay principle is that ER alpha-LBD (GST) is added to a fluorescent ligand to form a receptor/fluorophore complex. A terbium-labelled anti-GST antibody (Product code PV3551) is used to indirectly label the receptor by binding to its GST tag, and competitive binding is detected by a test compound's ability to displace the fluorescent ligand, resulting in a loss of TR-FRET signal between the Th-anti-GST antibody and the tracer. The assay was performed as follows with all reagent additions carried out using the Beckman Coulter BioRAPTR FRD microfluidic workstation: • 1. Acoustic dispense 120 nL of the test compound into a black low volume 384 well assay plates. • 2. Prepare 1×ER alpha-LBD/Tb-anti-GST Ab in ES2 screening buffer and incubate for 15 minutes. • 3. Dispense 6 μL of the 1×[…]/Th-anti-GST Ab reagent into each well of the assay plate followed by 6 μL of Fluorophore reagent into each well of the assay plate • 4. Cover the assay plate to protect the reagents from light and evaporation, and incubate at room temperature for 4 hours. • 5. Excite at 337 nm and measure the fluorescent emission signal of each well at 490 nm and 520 nm using the BMG PheraSTAR.
Compounds were dosed directly from a compound source microplate containing serially diluted compound (4 wells containing 10 mM, […] and 10 nM final compound respectively) to an assay microplate using the Labcyte Echo 550. The Echo 550 is a liquid handler that uses acoustic technology to perform direct microplate-to-microplate transfers of DMSO compound solutions and the system can be programmed to transfer multiple small nL volumes of compound from the different source plate wells to give the desired serial dilution of compound in the assay which is then back-filled to normalise the DMSO concentration across the dilution range.
In total 120 nL of compound plus DMSO were added to each well and compounds were tested in a 12-point concentration response format over a final compound concentration range of 10, 2.917, 1.042, 0.2083, 0.1, 0.0292, 0.0104, 0.002083, 0.001, 0.0002917, 0.0001042, and 0.00001 μM respectively. TR-FRET dose response data obtained with each compound was exported into a suitable software package (such as Origin or Genedata) to perform curve fitting analysis. Competitive ER alpha binding was expressed as an IC50 value. This was determined by calculation of the concentration of compound that was required to give a 50% reduction in tracer compound binding to ER alpha-LBD.

Row | Compound | IC50 [nM]
1 | COc1cc(N2CCN(CC3CCN(c4ncc([C@@H]5c6[nH]c7ccccc7c6C[C@@H](C)N5CC(C)(C)F)cn4)CC3)CC2)cc2c1C(=O)N(C1CCC(=O)NC1=O)C2 (stereo partly drawn) [Example 39, 3-(5-{4-[(1-{5-[(1R,3R)-2-(2-fluoro-2-methylpropyl)-3-methyl-2,3,4,9-tetrahydro-1H-beta-carbolin-1-yl]pyrimidin-2-yl}piperidin-4-yl)methyl]piperazin-1-yl}-7-methoxy-1-oxo-1,3-dihydro-2H-isoindol-2-yl)piperidine-2,6-dione] | 3.2
2 | C[C@@H]1Cc2c([nH]c3ccccc23)[C@@H](c2cnc(OCCCCCN3CCN(c4ccc5c(c4)CN(C4CCC(=O)NC4=O)C5=O)CC3)nc2)N1CC(C)(C)F (stereo partly drawn) [Example 40, 3-(5-{4-[5-({5-[(1R,3R)-2-(2-fluoro-2-methylpropyl)-3-methyl-2,3,4,9-tetrahydro-1H-beta-carbolin-1-yl]pyrimidin-2-yl}oxy)pentyl]piperazin-1-yl}-1-oxo-1,3-dihydro-2H-isoindol-2-yl)piperidine-2,6-dione] | 7
3 | C[C@@H]1Cc2c([nH]c3ccccc23)[C@@H](c2cnc(OC3CCC4(CC3)CCN(CC3CCN(c5ccc6c(c5)CN(C5CCC(=O)NC5=O)C6=O)CC3)CC4)nc2)N1CC(C)(C)F (stereo partly drawn) [Example 41, 3-[5-(4-{[9-({5-[(1R,3R)-2-(2-fluoro-2-methylpropyl)-3-methyl-2,3,4,9-tetrahydro-1H-beta-carbolin-1-yl]pyrimidin-2-yl}oxy)-3-azaspiro[5.5]undecan-3-yl]methyl}piperidin-1-yl)-1-oxo-1,3-dihydro-2H-isoindol-2-yl]piperidine-2,6-dione] | 2.2
